# Results: patent US20120010075A1 (priority 2009, published 2012)
# Like-named read-outs stand apart in the source and are kept apart here.
# How the values were obtained:
# [1] = tested on: Leptosphaeria nodorum (LEPTNO); assay: In vitro fungitoxicity of hydrazones with and without copper towards Leptosphaeria nodorum (Example 26); format: cell-based
# [2] = tested on: Leptosphaeria nodorum (glume blotch of wheat); assay: Cu-hydrazone complexes versus parent hydrazones against glume blotch of wheat (Example 32, Table 8); format: in vivo, Leptosphaeria nodorum on wheat (cultivar Yuma); conditions: Parastagonospora nodorum, 200 ppm spray, inoculated after 24 h
# [3] = tested on: Septoria tritici isolate USA-184; assay: In vitro fungitoxicity of hydrazones with and without copper towards Septoria tritici (Example 30, Table 5); format: cell-based; conditions: for inhibition at 0.05 µg/mL: Zymoseptoria tritici, 0.05 μg/mL
# [4] = tested on: Leptosphaeria nodorum (LEPTNO); assay: Isolated metal-hydrazone complexes versus parent hydrazones, in vitro, Leptosphaeria nodorum (Example 31, Table 7); format: cell-based; conditions: Parastagonospora nodorum; 0.1 μg/mL; copper-minus medium; 72 h
# Phytophthora infestans [5] = format: in vivo, Phytophthora infestans on tomato; conditions: hydrazone 50 ppm + 50 μM CuCl2.2H2O, applied 24 h before inoculation, assessed 7 days after inoculation, tomato
# Ustilago maydis = assay: In vitro fungitoxicity of hydrazones with and without copper towards Ustilago maydis (Example 29, Table 4); format: cell-based
# Phytophthora capsici [6] = assay: In vitro fungitoxicity of hydrazones with and without copper towards Phytophthora capsici (Example 28, Table 3); format: cell-based
# Phytophthora infestans [7] = format: in vivo, Phytophthora infestans on tomato; conditions: Late blight, 160 μM
# Plasmopara viticola = tested on: Plasmopara viticola; design: species or system Plasmopara viticola on grape; conditions: in vivo
# [8] = tested on: Leptosphaeria nodorum (LEPTNO); assay: Effect of copper on fungitoxicity of metal-hydrazone complexes towards Leptosphaeria nodorum (Example 33, Table 9); format: cell-based; conditions: CuCl2, 10 μM, no test compound, across experiments
# Phytophthora capsici [9] = assay: Effect of copper on fungitoxicity of metal-hydrazone complexes towards Phytophthora capsici (Example 34, Table 10); format: cell-based; conditions: CuCl2, 50 μM, no test compound, across experiments
# Phytophthora infestans [10] = format: in vivo, Phytophthora infestans on tomato (Outdoor Girl); conditions: no hydrazone
# Phytophthora capsici [11] = assay: Fungitoxicity of copper-hydrazone mixtures of different ratios towards Phytophthora capsici (Example 36, Table 12); format: cell-based
# Experimental: In vitro fungitoxicity assays against Phytophthora capsici were conducted using the copper-minus AS medium described in Example 28. Mixtures containing hydrazone compound 16 at 200 nM and CuCl2.2H2O at 0.2 μM (1:1 molar ratio), 0.8 μM (1:4 ratio), 3.2 μM (1:16 ratio), 12.5 μM (1:62.5 ratio), 50 μM (1:200 ratio) and 200 μM (1:1000 ratio) were prepared in copper-minus AS medium. Two-fold dilution series of these mixtures were then prepared in 100 μL aliquots of copper-minus AS medium in flat-bottomed 96-well microtiter plates. A suspension of P. capsici zoospores in Chelex-treated water at 5×10^4 spores per mL was prepared as in Example 28. Microtiter plates were inoculated with 100 μL of the spore suspension and incubated at 25° C. for 48 h before assessing fungal growth by measuring light scattering in a NepheloStar plate reader.
# (§1) Growth inhibition was determined by comparing growth in the presence of copper-hydrazone mixture with growth in control wells lacking the copper-hydrazone mixture. EC50 values were calculated from dose-response curves, and are expressed as the amounts of hydrazone or copper in each test mixture at the rates providing 50% inhibition of growth as compared to a control lacking the copper-hydrazone mixture.
# [12] = tested on: Leptosphaeria nodorum (LEPTNO); assay: Fungitoxicity of copper-hydrazone mixtures of different ratios towards Leptosphaeria nodorum (Example 35, Table 11); format: cell-based
# Experimental: In vitro fungitoxicity assays against LEPTNO were conducted using the copper-minus medium described in Example 26. Mixtures containing hydrazone compound 16 at 200 nM and CuCl2 at 0.2 μM (1:1 molar ratio), 0.8 μM (1:4 ratio), 12.5 μM (1:62.5 ratio) and 200 μM (1:1000 ratio) were prepared in copper-minus medium. Two-fold dilution series of these mixtures were then prepared in 100 μL aliquots of copper-minus medium in flat-bottomed 96-well microtiter plates. A suspension of LEPTNO spores in copper-minus medium at 2×10^5 spores per mL was prepared as in Example 26. Microtiter plates were inoculated with 100 μL of the spore suspension and the plates were incubated at 25° C. for 72 h before assessing fungal growth by measuring light scattering in a NepheloStar plate reader.
# as §1
# [13] = CuCl2 without hydrazone, read-out: CuCl2 EC50
# [14] = mixture with hydrazone compound 16, Hydrazone:Cu ratio 1 to 1, read-out: CuCl2 EC50 (amount of CuCl2 in mixture at EC50)
# [15] = mixture with hydrazone compound 16, Hydrazone:Cu ratio 1 to 4, read-out: CuCl2 EC50 (amount of CuCl2 in mixture at EC50)
# [16] = mixture with hydrazone compound 16, Hydrazone:Cu ratio 1 to 62.5, read-out: CuCl2 EC50 (amount of CuCl2 in mixture at EC50)
# [17] = mixture with hydrazone compound 16, Hydrazone:Cu ratio 1 to 1000, read-out: CuCl2 EC50 (amount of CuCl2 in mixture at EC50)
structure (smiles),measurement,setting,value
O=C(N/N=C/c1cc(Cl)cc(Cl)c1O)c1ccccc1O [Example 69],inhibition of growth at 0.05 µg/mL,"[1]; Parastagonospora nodorum, 72 h, compound 0.05 μg/mL, copper-minus medium, 72 h at 25° C., read-out: LEPTNO % Inhn. Minus Copper Observed",19.3%
same,LEPTNO % Inhn. Plus Copper Observed,"[1]; compound 0.05 μg/mL, copper-plus medium (CuCl2.2H2O), 72 h at 25° C.",96.9%
same,pest or weed control at 200 ppm,[2],25%
same,inhibition at 0.05 µg/mL,"[3]; Colby formula, CuCl2, read-out: % Inhibition Plus copper Predicted",0%
same,inhibition at 0.05 µg/mL,"[3]; copper-minus medium, 90 h, read-out: % Inhibition Minus copper Observed",0%
same,inhibition at 0.05 µg/mL,"[3]; copper-plus medium CuCl2, 90 h, read-out: % Inhibition Plus copper Observed",96.7%
same,inhibition at 0.1 µg/mL,[4],32.4%
same,TLB % Control,Phytophthora infestans [5],90.8%
same,% Inhn. Plus copper Observed,"Ustilago maydis; 1 μg/mL, copper-plus medium (CuCl2, 10 μM), 48 h",96.2%
same,inhibition of growth at 1 µg/mL,"Ustilago maydis; Mycosarcoma maydis, 1 μg/mL, copper-minus medium, 48 h, read-out: % Inhn. Minus copper Observed",0%
same,% Inhn Plus copper Observed,"Phytophthora capsici [6]; 0.050 μg/mL, copper-plus AS medium (CuCl2, 50 μM), 48 h",87.6%
same,inhibition of growth at 0.05 µg/mL,"Phytophthora capsici [6]; Phytophthora capsici, 0.050 μg/mL, copper-minus AS medium, 48 h, read-out: % Inhn Minus copper Observed",0%
"O.O.[Cl][Cu][Cl] [CuCl2, CuCl2.2H2O, reference compound]",% Control Observed,Phytophthora infestans [7],69%
same,LEPTNO % Inhn. Plus Copper Observed (copper chloride alone),"[1]; CuCl2 10 μM alone, no test compound, copper-plus versus copper-minus medium across experiments",7.1 ± 6.0%
same,effect of copper chloride alone on growth,"[3]; 1 μM, no test compound",no effect on growth
same,% Inhibition attributed to copper chloride alone,"[3]; CuCl2, 1 μM, no test compound",0%
same,% Control Observed,Plasmopara viticola,1%
same,% Inhn. attributed to copper chloride alone,[8],3.3%
same,% Inhn. attributed to copper chloride alone,Phytophthora capsici [9],4.6%
same,% Inhn. attributed to copper chloride alone,"Ustilago maydis; CuCl2, 10 μM, no test compound",11.9%
same,% Inhn attributed to copper chloride alone,"Phytophthora capsici [6]; CuCl2, 50 μM, no test compound, across experiments",4.5 ± 7.9%
same,% Control of Tomato Late Blight,Phytophthora infestans [10]; CuCl2 10 μM alone,1.7%
same,% Control of Tomato Late Blight,Phytophthora infestans [10]; CuCl2 50 μM alone,8.5%
same,% Control of Tomato Late Blight,Phytophthora infestans [10]; CuCl2 200 μM alone,38.2%
same,% Control of Tomato Late Blight,Phytophthora infestans [10]; CuCl2 400 μM alone,56.0%
same,% Control of Tomato Late Blight,Phytophthora infestans [10]; CuCl2 800 μM alone,70.2%
same,EC50,Phytophthora capsici [11]; [13],720000 nM
same,EC50,Phytophthora capsici [11]; [14],71 nM
same,EC50,Phytophthora capsici [11]; [15],189 nM
same,EC50,"Phytophthora capsici [11]; mixture with hydrazone compound 16, Hydrazone:Cu ratio 1 to 16, read-out: CuCl2 EC50 (amount of CuCl2 in mixture at EC50)",441 nM
same,EC50,Phytophthora capsici [11]; [16],1040 nM
same,EC50,"Phytophthora capsici [11]; mixture with hydrazone compound 16, Hydrazone:Cu ratio 1 to 250, read-out: CuCl2 EC50 (amount of CuCl2 in mixture at EC50)",1900 nM
same,EC50,Phytophthora capsici [11]; [17],4560 nM
same,EC50,[12]; [13],118000 nM
same,EC50,[12]; [14],72 nM
same,EC50,[12]; [15],172 nM
same,EC50,[12]; [16],1770 nM
same,EC50,[12]; [17],14000 nM
